Test results as given in PMC11261611, “Tongue-on-a-Chip: Parallel Recording of Sweet and Bitter Receptor Responses to Sequential Injections of Pure and Mixed Sweeteners” (Journal of Agricultural and Food Chemistry, 2024).
Where a SMILES comes first, the peptide text is derived from it.

Assays:
[1] = target: T1, sweet taste receptor TAS1R2/R3 (TAS1R2) (Homo sapiens, UniProt Q7RTX0+Q8TE23); assay: calcium (Twitch2B FRET) response in reverse-transfected HEK293-Gα[…]GUST44 receptor array, flow cell; format: cell-based
T1 construct: with TAS1R3
T1 sequence (Q8TE23 20-839): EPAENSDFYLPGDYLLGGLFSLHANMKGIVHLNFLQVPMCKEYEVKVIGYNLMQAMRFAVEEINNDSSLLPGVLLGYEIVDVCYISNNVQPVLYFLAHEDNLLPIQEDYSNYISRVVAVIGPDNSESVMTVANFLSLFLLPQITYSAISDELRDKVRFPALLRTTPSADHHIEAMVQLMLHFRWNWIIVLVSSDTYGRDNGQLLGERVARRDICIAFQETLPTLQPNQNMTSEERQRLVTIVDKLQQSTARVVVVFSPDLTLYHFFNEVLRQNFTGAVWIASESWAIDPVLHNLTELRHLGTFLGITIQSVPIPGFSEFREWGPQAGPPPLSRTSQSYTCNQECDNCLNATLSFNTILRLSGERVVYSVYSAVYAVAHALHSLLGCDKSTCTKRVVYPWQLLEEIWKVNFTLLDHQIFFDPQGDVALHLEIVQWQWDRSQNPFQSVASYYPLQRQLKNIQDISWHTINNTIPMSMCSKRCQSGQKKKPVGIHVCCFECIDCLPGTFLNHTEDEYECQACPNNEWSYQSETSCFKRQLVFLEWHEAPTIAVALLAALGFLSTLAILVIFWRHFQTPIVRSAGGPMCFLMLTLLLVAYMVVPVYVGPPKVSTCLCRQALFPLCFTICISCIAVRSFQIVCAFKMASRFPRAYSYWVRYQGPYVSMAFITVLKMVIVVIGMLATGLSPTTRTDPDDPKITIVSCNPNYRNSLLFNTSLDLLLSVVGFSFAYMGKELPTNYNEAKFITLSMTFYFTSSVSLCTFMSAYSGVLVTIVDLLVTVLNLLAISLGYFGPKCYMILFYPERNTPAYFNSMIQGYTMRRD
T1 sequence (Q7RTX0 21-852): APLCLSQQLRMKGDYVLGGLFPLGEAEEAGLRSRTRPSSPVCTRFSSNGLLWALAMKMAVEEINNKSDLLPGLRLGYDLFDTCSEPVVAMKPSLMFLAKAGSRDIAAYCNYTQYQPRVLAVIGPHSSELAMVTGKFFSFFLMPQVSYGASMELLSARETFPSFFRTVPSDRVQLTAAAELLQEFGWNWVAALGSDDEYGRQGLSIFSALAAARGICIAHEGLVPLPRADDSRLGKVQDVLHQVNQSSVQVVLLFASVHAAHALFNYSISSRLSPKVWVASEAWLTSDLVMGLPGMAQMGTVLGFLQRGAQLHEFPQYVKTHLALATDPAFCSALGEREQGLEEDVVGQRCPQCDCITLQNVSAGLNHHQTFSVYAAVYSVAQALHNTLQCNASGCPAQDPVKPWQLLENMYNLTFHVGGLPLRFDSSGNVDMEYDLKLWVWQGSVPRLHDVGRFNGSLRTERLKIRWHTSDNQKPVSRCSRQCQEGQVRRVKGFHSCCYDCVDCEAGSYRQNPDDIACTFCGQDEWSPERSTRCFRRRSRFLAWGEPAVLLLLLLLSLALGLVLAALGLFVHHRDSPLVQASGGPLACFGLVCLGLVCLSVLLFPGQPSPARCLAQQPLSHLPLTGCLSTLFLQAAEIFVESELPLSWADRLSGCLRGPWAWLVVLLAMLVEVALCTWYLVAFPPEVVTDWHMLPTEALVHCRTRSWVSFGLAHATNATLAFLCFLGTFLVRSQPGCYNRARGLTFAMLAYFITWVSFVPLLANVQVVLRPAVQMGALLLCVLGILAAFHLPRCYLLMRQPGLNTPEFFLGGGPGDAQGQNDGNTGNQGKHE

TAS2R43 = target: T2, TAS2R43 (Homo sapiens, UniProt P59537); settings: hek293 cells
T2 sequence (P59537 1-309): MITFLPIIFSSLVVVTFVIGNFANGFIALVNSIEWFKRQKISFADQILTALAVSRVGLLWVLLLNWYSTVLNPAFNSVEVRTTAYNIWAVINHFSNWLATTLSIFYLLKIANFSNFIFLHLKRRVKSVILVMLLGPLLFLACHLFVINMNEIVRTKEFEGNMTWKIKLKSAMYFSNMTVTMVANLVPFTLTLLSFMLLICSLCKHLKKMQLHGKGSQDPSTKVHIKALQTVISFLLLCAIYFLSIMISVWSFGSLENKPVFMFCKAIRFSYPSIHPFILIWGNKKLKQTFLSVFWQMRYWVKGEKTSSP

TAS2R8 = target: T3, TAS2R8 (Homo sapiens, UniProt Q9NYW2); settings: hek293 cells
T3 sequence (Q9NYW2 1-309): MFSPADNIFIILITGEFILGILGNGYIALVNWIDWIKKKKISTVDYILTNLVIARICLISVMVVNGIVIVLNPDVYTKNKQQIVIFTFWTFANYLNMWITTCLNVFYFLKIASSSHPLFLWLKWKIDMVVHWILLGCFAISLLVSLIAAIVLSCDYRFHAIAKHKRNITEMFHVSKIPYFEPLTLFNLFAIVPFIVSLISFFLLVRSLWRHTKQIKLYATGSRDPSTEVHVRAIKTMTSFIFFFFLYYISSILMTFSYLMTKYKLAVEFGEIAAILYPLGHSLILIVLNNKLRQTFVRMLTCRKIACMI

TAS2R31 = TAS2R31 (Homo sapiens, UniProt P59538); settings: hek293 cells
Chain of TAS2R31 (P59538 whole entry): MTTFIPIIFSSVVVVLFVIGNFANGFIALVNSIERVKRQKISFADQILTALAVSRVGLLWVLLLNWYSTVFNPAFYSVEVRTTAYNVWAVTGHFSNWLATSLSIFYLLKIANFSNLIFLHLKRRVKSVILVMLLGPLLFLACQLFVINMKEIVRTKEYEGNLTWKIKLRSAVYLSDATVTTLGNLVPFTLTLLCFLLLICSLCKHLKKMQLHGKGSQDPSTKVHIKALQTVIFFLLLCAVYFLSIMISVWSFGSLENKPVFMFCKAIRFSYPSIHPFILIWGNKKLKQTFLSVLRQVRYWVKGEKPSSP

[2] = target: T1, sweet taste receptor TAS1R2/R3 (TAS1R2); assay: calcium (Twitch2B FRET) response in reverse-transfected HEK293-Gα[…]GUST44 receptor array, normalized against umami receptor signal; format: cell-based

**Q.** How did the EC50 [1] turn out when `COC(=O)[C@H](Cc1ccccc1)NC(=O)[C@H](CC(=O)O)NCCCc1ccc(OC)c(O)c1` [advantame] was run?
**A.** ~1.5 µM

**Q.** `COC(=O)[C@H](Cc1ccccc1)NC(=O)[C@@H](N)CC(=O)O` [aspartame] (H-Asp-Phe-OMe) was tested. Which EC50 [1] did it give?
**A.** 625 µM

**Q.** What does the source list for `O=S(=O)(O)NC1CCCCC1` [cyclamate]?
**A.** % signal reduction (TAS2R43): 92 % signal reduction; % signal reduction (TAS2R8): 33 % signal reduction; % signal reduction (TAS2R31): 48 % signal reduction

**Q.** `OC[C@H]1O[C@@](CO)(O[C@H]2O[C@H](CO)[C@@H](O)[C@H](O)[C@H]2O)[C@@H](O)[C@@H]1O` [sucrose] was tested. Which EC50 [2] did it give?
**A.** 35000 µM
